According to patent US20220017478A1, “2-BENZOYLAMINOBENZAMIDE DERIVATIVES AS BCL-3 INHIBITORS” (University College Cardiff Consultants Limited, priority 2013, published 2022):
Like-named read-outs stand apart in the source and are kept apart here.

Target: T1, Bcl-3-p50 binding (Homo sapiens, UniProt P20749)
T1 construct: expressed in transfected cells; host or cells: HEK-293
T1 sequence (P20749 1-454): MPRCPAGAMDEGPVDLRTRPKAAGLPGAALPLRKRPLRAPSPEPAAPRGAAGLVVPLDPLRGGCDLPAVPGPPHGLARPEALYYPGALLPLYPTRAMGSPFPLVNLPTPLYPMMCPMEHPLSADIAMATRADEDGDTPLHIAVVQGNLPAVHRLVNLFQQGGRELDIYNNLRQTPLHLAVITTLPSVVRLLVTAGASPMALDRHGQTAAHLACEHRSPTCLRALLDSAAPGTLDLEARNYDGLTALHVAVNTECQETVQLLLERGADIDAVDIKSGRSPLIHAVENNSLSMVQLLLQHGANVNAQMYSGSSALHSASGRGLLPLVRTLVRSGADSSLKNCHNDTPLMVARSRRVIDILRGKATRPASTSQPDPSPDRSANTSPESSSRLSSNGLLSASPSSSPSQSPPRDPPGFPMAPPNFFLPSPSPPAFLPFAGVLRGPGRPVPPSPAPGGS
Test: Indirect sandwich ELISA of Bcl-3 binding to p50 in lysates of treated HEK-293 cells overexpressing FLAG-tagged Bcl-3
Type: cell-based
Method: Proteins were extracted from cells in order to be analyzed by ELISA assay. The media from tissue culture flask was removed and cells were rinsed with ice cold PBS (Sigma, Dorset, UK). Appropriate volume of PBS (5 ml for T25, 10 ml for T80) was added into the flask and cells were removed with a cell scraper (Nunc, Leics, UK). The cell suspension was then transferred to 15 ml tubes and centrifuged at 11000 rpm for 5 min at room temperature. Resulting pellet was used for protein extraction immediately or stored at −20° C. prior use.
Non-denatured protein extract was prepared using non-denaturing lysis buffer (Table 1) and used to analyze protein-protein interaction.
Complete mini protease inhibitor tablets (Roche, Welwyn Garden City, UK), 10 mM sodium fluoride (Fluka Biochemika), 1 mM sodium pyrophospate and 1 mM sodium orthovanadate (Sigma, Dorset, UK) were added to the buffer prior use. Cell pellets were resuspended in appropriate volume of non-denaturing buffer (50-200 μl) and cultivated on ice 5 min. Cell suspensions were transferred to microcentrifuge tubes and sonicated on ice (3 times 5 s) and centrifuged at 10000 rpm for 10 min at 4° C. The resultant supernatant was used immediately or stored at −20° C. until required.
In our case, ELISA assay was used to detect either the amount of Flag-Bcl-3 protein alone or Flag-Bcl-3 in complex with p50, using indirect or sandwich ELISA respectively.
For Indirect and sandwich ELISA assay, Non-denaturing cell lysate (above) was diluted with TBS/T [tris buffer saline (TBS, Calbiochem, Merck) supplemented with 0.5% v/v Tween (Sigma, Dorset, UK)] to a concentration of 0.5-1 μg/μl and 100 μl was added onto ANTI-Flag coated flat bottom ELISA plates (Sigma, Dorset, UK). Samples were added in triplicates, while TBS/T was used as a negative control. The plate was cultivated at 37° C. for an hour followed by 3×200 μl washes with TBS/T. Primary antibodies, either Bcl-3 (Santa Cruz Biotech) for indirect ELISA and p50 for sandwich ELISA (Abcam) were added in known volumes (125 μl) and concentrations to each well, cultivated covered from light for an hour at room temperature. Another three 200 μl washes with TBS/T were performed before cultivation with alkaline phospatase (AP) conjugated secondary antibody. Meanwhile, para-nitrophenylphosphate solution (pNPP, Santa Cruz Biotechnology, California, USA) was prepared according to manufacturer's instructions (5 mg of pNPP disodium salt in 5 ml of pNPP substrate buffer). The solution was mixed well and covered from light prior to use. pNPP is a substrate of choice for use with alkaline phosphatase and produces a soluble end product that is yellow in colour. Therefore colour changes can be measured and represent the amount of AP present. After cultivation with secondary antibody, the wells were washed 3×200 μl. TBS/T, pNPP solution was added (50 μl/well) and cultivated for an hour covered from light at room temperature. The reaction was stopped by addition of 3N NaOH (20 μl/well) and the colorimetric changes were measured at 405 nm using a plate reader.
HEK-293 cells overexpressing Bcl-3 were cultivated with Compound 1a over a range of molarities for 24 hrs before cell lysates were obtained under non-denaturing conditions. […] Indirect ELISA assay was performed using Bcl-3 antibody to show an equal loading across samples treated with compound 1a (FIG. 2B) and controls (FIG. 2C).
HEK-293 Bcl-3 WT cells were cultivated with selected compounds over a range of molarities for 24 hrs before cell lysates were obtained under non-denaturing conditions. The dose response curve for selected analogues was generated using GraphPad software (FIG. 8A-D).

[1] = HEK-293 overexpressing Bcl-3, 24 hrs, read-out: IC50 Indirect Sandwich ELISA (Bcl-3-p50 binding)
[2] = Table 3, read-out: ELISA assay (μM) IC50

IC50 [1] | IC50 [2] | IC50 (HEK-293 Bcl-3 WT, 24 hrs, IC50 could not be established, calculated with GraphPad, read-out: IC50 Indirect Sandwich ELISA, calculated from the dose response curve) | Compound
0.119 µM | 0.0119 µM | – | COc1cccc(C(=O)NCCN2CCOCC2)c1NC(=O)c1ccccc1F [Compound 3a, 2-[(2-fluorobenzoyl)amino]-3-methoxy-N-(2-morpholin-4-ylethyl) benzamide]
0.0602 µM | 0.0617 µM | – | COc1ccc(C(=O)Nc2ccccc2C(=O)NCCN2CCOCC2)cc1 [Compound 1f, 2-[(4-methoxybenzoyl)amino]-N-(2-morpholin-4-ylethyl)benzamide]
0.386 µM | – | – | O=C(Nc1ccccc1C(=O)NCCN1CCOCC1)c1ccccc1F [Compound 1a, 2-[(2-fluorobenzoyl)amino]-N-(2-morpholin-4-ylethyl)benzamide]
– | – | 15.2 µM | O=C(Nc1ccccc1C(=O)NCCCN1CCOCC1)c1ccccc1F [Compound 2a]
